The source of these data is PubChem BioAssay AID434987 (Southern Research Specialized Biocontainment Screening …, 2010).

pIC50: −log10 of the molar value. The source made the active and inactive calls. No rule for the calls is given here.

In this assay the test system is M. tuberculosis H37Rv growth inhibition with meropenem. As to the kind of experiment: dose response, H37Rv, with and without meropenem (AID 434987).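 Also: growth over 7 days at 37 °C before Alamar Blue read on day 9.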
[1] abbreviates: M. tuberculosis H37Rv growth inhibition, measured here: IC50 without meropenem.
Where [2] appears, read: M. tuberculosis H37Rv growth inhibition, measured here: IC90 without meropenem.
Setting [3] is: measured here: IC90 with meropenem.

Consider `CC(C)N1CCc2c(sc(NC(=O)c3cc(-c4cccs4)nc4ccccc34)c2C(N)=O)C1`, for which the IC50 (usually the concentration that inhibits the measured activity by half) is 13.7 µM (inactive). Under setting [1], the pIC50 (as a rule, the IC50 on a negative log10 scale, so that one unit is a factor of ten) was 4.61. Also, the IC90 (commonly the point of the concentration-response curve where the effect stands at 90%) under setting [2] was above 100 µM. This compound also came in with a concentration for an effect of 90% (IC90) under setting [3] above 100 µM.
Regarding `O=c1c2c(nc3n1CCCCC3)sc1c(O)c(Br)ccc12`, the IC50 was 48 µM (inactive). Besides, under setting [1], the negative-log IC50 (pIC50) is below 4.00. This compound also displayed a 90% effect concentration (IC90) under setting [2] above 100 µM. This compound returned an IC90 under setting [3] above 50 µM.
The like results for `Clc1ccc(-c2csc3ncnc(N4CCc5ccccc5C4)c23)cc1` were, in that order, 95.4 µM (inactive), below 4.00, above 100 µM and above 100 µM.
The like results for `Cc1cccc(NC(=O)Cn2cnc3c(oc4ccccc43)c2=O)c1C` were, in that order, > 100 µM (inactive), below 4.00, above 100 µM and above 100 µM.
The like results for `CCCCNC(=O)c1onc(CSc2ccc(F)c(F)c2)c1C(=O)O` were, in that order, 27.8 µM (inactive), 4.26, above 100 µM and 56.8 µM.
In the case of `COc1cc(NC(=O)c2ccccc2Cl)ccc1NC(=O)c1ccco1`, the IC50 was 19.6 µM (inactive). Besides, under setting [1], the negative-log IC50 (pIC50) is 4.48. This compound also yielded an IC90 under setting [2] above 50 µM. The IC90 under setting [3] is above 25 µM.
The like results for `c1ccc2c(c1)CC1CNCc3cccc(c31)S2` (stereo not drawn) were, in that order, 47.4 µM (inactive), below 4.00, above 100 µM and above 100 µM.
`CN1C/C(=N\S(=O)(=O)c2ccccc2)N(C)C1=O`: the IC50 was 13 µM (inactive). Under setting [1], this compound had a pIC50 of 4.63. The IC90 under setting [2] amounted to 46.7 µM. The same compound yielded an IC90 under setting [3] of 33.7 µM.
The like results for `O=C1CS/C(=N/N=C2C3CC4CC(C3)CC2C4)N1` were, in that order, 11.7 µM (inactive), 4.63, 32.5 µM and 13.8 µM.
On to `COc1cc(/C=C/C(=O)OCC(=O)Nc2cc(C)c(C)cc2[N+](=O)[O-])ccc1O`, for which the IC50 is 43 µM (inactive). The same compound showed a negative-log IC50 (pIC50) under setting [1] of 4.03. Under setting [2], the IC90 is above 100 µM. For the same compound, the IC90 under setting [3] was above 100 µM.
On to `O=S1(=O)CCO[C@H]2Cc3ccccc3[C@H]2N1Cc1ccc(Cl)cc1`, for which the IC50 was > 100 µM (inactive). Under setting [1], the pIC50 is below 4.00. The same compound registered an IC90 under setting [2] above 100 µM. In addition, the 90% effect concentration (IC90) under setting [3] is above 100 µM.
For `COc1cc(C(F)(F)F)nc2ccc(C#CCOC(=O)Nc3ccccc3)cc12`, the IC50 is > 100 µM (inactive). For the same compound, the pIC50 under setting [1] is below 4.00. In addition, the IC90 under setting [2] is above 100 µM. For the same compound, under setting [3], the IC90 was above 100 µM.
Regarding `CCNc1nc(CN2CCCCC2)nc2scc(-c3ccccc3)c12`, the pIC50 is 5.06. This compound also had a pIC50 under setting [1] of 4.33. For the same compound, the IC90 under setting [2] was above 100 µM. This compound also showed an IC90 under setting [3] of 57.3 µM.
For the compound `CC(=O)Nc1cccc(-n2nnc(SCC(=O)Nc3ccc(F)c(Cl)c3)n2)c1`, the IC50 is > 100 µM (inactive). For the same compound, the pIC50 under setting [1] is below 4.00. Moreover, the concentration for an effect of 90% (IC90) under setting [2] is above 100 µM. The IC90 under setting [3] was above 100 µM.
As to `Cn1c(/C=C/c2ccc(Br)cc2)c([N+](=O)[O-])c(=O)n(C)c1=O`, the IC50 was > 100 µM (inactive). The compound also showed a pIC50 under setting [1] below 4.00. Under setting [2], this compound came in with an IC90 above 100 µM. In addition, the IC90 under setting [3] was above 100 µM.
For `O=C1c2cccc3c(N4CCCCC4)ccc(c23)C(=O)N1c1ccccn1`, the IC50 is 84.8 µM (inactive). The compound further gave a pIC50 under setting [1] below 4.00. Under setting [2], the 90% effect concentration (IC90) was above 100 µM. The 90% effect concentration (IC90) under setting [3] was above 100 µM.
For `CCCC(=O)Nc1ccc(NC(=S)NC(=O)c2cccs2)cc1`, the IC50 was > 100 µM (inactive). The same compound gave a pIC50 under setting [1] below 4.00. This compound had an IC90 under setting [2] above 100 µM. The compound also came in with an IC90 under setting [3] above 100 µM.
Regarding `C#C[C@]1(O)CC[C@H]2[C@@H]3CCC4=C(CCC(=O)C4)[C@H]3CC[C@@]21C`, the IC50 was > 100 µM (inactive). Under setting [1], this compound had a pIC50 below 4.00. This compound also displayed an IC90 under setting [2] above 100 µM. For the same compound, the concentration for an effect of 90% (IC90) under setting [3] was above 100 µM.
`COCCNC(=S)N/N=C(\C)c1cccc(OC)c1`: the negative-log IC50 (pIC50) was 4.75. Further, the pIC50 under setting [1] is 4.33. Further, the concentration for an effect of 90% (IC90) under setting [2] was above 100 µM. The same compound came in with a concentration for an effect of 90% (IC90) under setting [3] above 100 µM.
With `Cc1ccc(C(=O)N2CCC3(CC2)Oc2ccc(F)cc2C(=O)C32CC(c3cccnc3)=NO2)s1` (stereo not drawn), the IC50 is 97.5 µM (inactive). Also, under setting [1], the negative logarithm of the IC50 (pIC50) was 4.02. Moreover, the IC90 under setting [2] is above 100 µM. Under setting [3], this compound displayed a concentration for an effect of 90% (IC90) above 100 µM.
On to `Cc1ccc(C(=O)NCC2(c3ccccc3)CCCC2)cc1`, for which the IC50 was 75.3 µM (inactive). Further, under setting [1], the pIC50 was below 4.00. Under setting [2], the IC90 is above 100 µM. Also, the IC90 under setting [3] was above 100 µM.
Turning to `C(=N\n1cnnc1)/c1ccc(-c2ccccc2)cc1`, the IC50 was > 100 µM (inactive). The compound also showed a pIC50 under setting [1] below 4.00. Under setting [2], this compound returned an IC90 above 100 µM. This compound also showed a 90% effect concentration (IC90) under setting [3] above 100 µM.
Take `CCCCNC(=O)c1onc(CSc2ccccc2CC)c1C(=O)O`: the IC50 was 22.3 µM (inactive). Also, the pIC50 under setting [1] was 4.35. Also, the IC90 under setting [2] is above 100 µM. The compound also registered an IC90 under setting [3] of 23.7 µM.
For `CC(C)(C)C1=Nn2c(nnc2-c2ccccc2F)SC1`, the pIC50 was 4.76. Also, the pIC50 under setting [1] was below 4.00. The IC90 under setting [2] is above 100 µM. This compound came in with an IC90 under setting [3] of 78.3 µM.
As to `CCn1c2ccccc2c2cc(NC(=O)c3cccc(OC)c3OC)ccc21`, the IC50 is > 100 µM (inactive). Also, under setting [1], the pIC50 is below 4.00. Under setting [2], this compound yielded an IC90 above 100 µM. Under setting [3], this compound had an IC90 above 100 µM.
For `CCOC(=O)c1ccc(N2CN(C3CCCCC3)CNC2=S)cc1`, the pIC50 is 4.45. Under setting [1], this compound showed a pIC50 below 4.00. Further, the IC90 under setting [2] is above 100 µM. The compound also had an IC90 under setting [3] above 100 µM.
As for `O=C(CN1CCN(c2ccc(F)cc2)CC1)Nc1ccccc1C(=O)NCCc1ccccc1`, the negative-log IC50 (pIC50) was 4.45. Also, the pIC50 under setting [1] is below 4.00. In addition, the IC90 under setting [2] is above 100 µM. In addition, the IC90 under setting [3] is above 100 µM.
On to `O=C(CN(Cc1ccco1)C(=O)c1cccc(Cl)c1)Nc1c(Cl)cc(Cl)cc1Cl`, for which the IC50 is 48.3 µM (inactive). This compound showed a pIC50 under setting [1] below 4.00. The IC90 under setting [2] is above 100 µM. This compound also displayed an IC90 under setting [3] above 100 µM.
Consider `CCOC(=O)c1c(C)[nH]c(C)c1C(=O)COC(=O)/C=C/c1ccc(OC(F)F)cc1`, for which the IC50 was 61.1 µM (inactive). Also, the pIC50 under setting [1] is 4.01. Moreover, under setting [2], the 90% effect concentration (IC90) was above 100 µM. Under setting [3], this compound came in with an IC90 of 91.4 µM.
In the same order, the values of `CCOc1nnnc2c1sc1nc(N3CCOCC3)c3c(c12)CCCC3` are > 100 µM (inactive), below 4.00, above 100 µM and above 100 µM.
For `Cc1ccc(Sc2c(C(=O)Nc3ccc(F)cc3F)c(C(F)(F)F)nn2C)cc1`, the IC50 was > 100 µM (inactive). The compound also gave a pIC50 under setting [1] below 4.00. The same compound returned an IC90 under setting [2] above 100 µM. This compound also yielded an IC90 under setting [3] above 100 µM.
As for `C=CCNCCCOc1ccc(Cl)cc1C(C)(C)C`, the IC50 is 48.1 µM (inactive). Under setting [1], this compound showed a negative-log IC50 (pIC50) of 4.24. Under setting [2], this compound returned an IC90 of 72.3 µM. The same compound returned an IC90 under setting [3] of 52.6 µM.
